Reference: patent US20240109900A1, “AZABICYCLIC SHP2 INHIBITORS” (IRBM S.P.A., priority 2021, published 2024)

Experiments:
[1] = target: SHP-2 enzyme (Met1-Leu525) (Homo sapiens (Human), UniProt Q06124); experiment: SHP2 inhibition enzymatic assay; format: biochemical; conditions: 0.5 nM SHP-2 activated by 500 nM IRS1 peptide, 75 μM DiFMUP substrate; read-out: SHP2wt-IC50
In short: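 SHP-2 (Met1-Leu525), 0.5 nM, activated with 500 nM IRS1 bis-phosphopeptide, preincubated 30 min with compounds in HEPES pH 7.2 buffer with 5 mM DTT. 75 μM DiFMUP added for 30 min at room temperature, stopped with bpV; fluorescence read. IC50 from four-parameter logistic fit of % inhibition.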

[2] = tested on: ERK phosphorylation in KYSE-520 cells; experiment: Phospho-ERK cellular assay; format: cell-based; conditions: Homo sapiens, KYSE-520, 2 h, KYSE-520 cells, 2 h at 37° C., phospho-ERK1/2 (Thr202/Tyr204) TR-FRET; read-out: PERK IC50
In short: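 TR-FRET read-out of ERK1/2 Thr202/Tyr204 phosphorylation was taken after overnight antibody incubation at room temperature. Before that, KYSE-520 cells were treated 2 h at 37 °C with compound dilutions and lysed 30 min. Percent inhibition relative to vehicle and cell-free wells was fitted four-parametrically to give IC50.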

SHP-2 enzyme (Met1-Leu525), sequence (Q06124 1-525): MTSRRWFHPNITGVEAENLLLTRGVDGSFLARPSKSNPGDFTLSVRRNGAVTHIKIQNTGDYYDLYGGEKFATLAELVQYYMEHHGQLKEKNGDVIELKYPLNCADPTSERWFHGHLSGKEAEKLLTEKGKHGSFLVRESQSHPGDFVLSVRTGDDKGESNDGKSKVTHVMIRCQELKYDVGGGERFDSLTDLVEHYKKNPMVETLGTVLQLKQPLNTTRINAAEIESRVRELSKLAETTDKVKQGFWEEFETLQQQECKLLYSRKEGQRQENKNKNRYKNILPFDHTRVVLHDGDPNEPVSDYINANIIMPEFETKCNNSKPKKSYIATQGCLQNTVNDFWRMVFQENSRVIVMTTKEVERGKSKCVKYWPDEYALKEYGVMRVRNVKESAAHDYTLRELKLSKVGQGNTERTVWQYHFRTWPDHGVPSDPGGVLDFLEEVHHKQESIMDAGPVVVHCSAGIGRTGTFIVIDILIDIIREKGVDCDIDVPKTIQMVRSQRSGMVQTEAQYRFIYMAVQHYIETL

IC50 [1] [µM]	IC50 [2] [µM]	Structure (SMILES)
< 0.5	< 1	NC[C@]1(c2ccccc2F)[C@@H]2CCN(c3cnc4c(-c5ccnc6occc56)n[nH]c4n3)C[C@@H]21 [Example 186, ((1S,6R,7R)-7-(2-fluorophenyl)-3-(3-(furo[2,3-b]pyridin-4-yl)-1H-pyrazolo[3,4-b]pyrazin-6-yl)-3-azabicyclo[4.1.0]heptan-7-yl)methanamine]
< 0.5	< 1	NC[C@]1(c2ccccc2F)[C@@H]2CCN(c3cnc4c(-c5ccc6c(c5)CC(=O)N6)n[nH]c4n3)C[C@@H]21 [Example 187, 5-(6-((1S,6R,7R)-7-(aminomethyl)-7-(2-fluorophenyl)-3-azabicyclo[4.1.0]heptan-3-yl)-1H-pyrazolo[3,4-b]pyrazin-3-yl)indolin-2-one]
< 0.5	< 1	COc1cnc2ccc(-c3n[nH]c4nc(N5CC[C@@H]6[C@H](C5)[C@@]6(CN)c5ccccc5F)cnc34)cc2n1 [Example 188, ((1S,6R,7R)-7-(2-fluorophenyl)-3-(3-(3-methoxyquinoxalin-6-yl)-1H-pyrazolo[3,4-b]pyrazin-6-yl)-3-azabicyclo[4.1.0]heptan-7-yl)methanamine]
< 0.5	< 1	Cc1nccc(-c2n[nH]c3nc(N4CC[C@@H]5[C@H](C4)[C@@]5(CN)c4ccccc4F)cnc23)c1Cl [Example 189, ((1S,6R,7R)-3-(3-(3-chloro-2-methylpyridin-4-yl)-1H-pyrazolo[3,4-b]pyrazin-6-yl)-7-(2-fluorophenyl)-3-azabicyclo[4.1.0]heptan-7-yl)methanamine]
< 0.5	< 1	CN(C)c1nccc(-c2n[nH]c3nc(N4CC[C@@H]5[C@H](C4)[C@@]5(CN)c4ccccc4F)cnc23)c1Cl [Example 190, 4-(6-((1S,6R,7R)-7-(aminomethyl)-7-(2-fluorophenyl)-3-azabicyclo[4.1.0]heptan-3-yl)-1H-pyrazolo[3,4-b]pyrazin-3-yl)-3-chloro-N,N-dimethylpyridin-2-amine]
< 0.5	< 1	COc1ccc2c(-c3n[nH]c4nc(N5CC[C@@H]6[C@H](C5)[C@@]6(CN)c5ccccc5F)cnc34)ccnc2c1 [Example 191, ((1S,6R,7R)-7-(2-fluorophenyl)-3-(3-(7-methoxyquinolin-4-yl)-1H-pyrazolo[3,4-b]pyrazin-6-yl)-3-azabicyclo[4.1.0]heptan-7-yl)methanamine]
< 0.5	> 5	CN(C)Cc1ccc(-c2n[nH]c3nc(N4CC[C@@H]5[C@H](C4)[C@@]5(CN)c4ccccc4F)cnc23)c2cccnc12 [Example 192, 1-(5-(6-((1S,6R,7R)-7-(aminomethyl)-7-(2-fluorophenyl)-3-azabicyclo[4.1.0]heptan-3-yl)-1H-pyrazolo[3,4-b]pyrazin-3-yl)quinolin-8-yl)-N,N-dimethylmethanamine]
< 0.5	< 1	Cc1c(-c2n[nH]c3nc(N4CC[C@@H]5[C@H](C4)[C@@]5(CN)c4ccccc4F)cnc23)ccc2nonc12 [Example 193, ((1S,6R,7R)-7-(2-fluorophenyl)-3-(3-(4-methylbenzo[c][1,2,5]oxadiazol-5-yl)-1H-pyrazolo[3,4-b]pyrazin-6-yl)-3-azabicyclo[4.1.0]heptan-7-yl)methanamine]
< 0.5	< 1	Cn1cc2c(C3CC3)c(-c3n[nH]c4nc(N5CC[C@@H]6[C@H](C5)[C@@]6(CN)c5ccccc5F)cnc34)ccc2n1 [Example 194, ((1S,6R,7R)-3-(3-(4-cyclopropyl-2-methyl-2H-indazol-5-yl)-1H-pyrazolo[3,4-b]pyrazin-6-yl)-7-(2-fluorophenyl)-3-azabicyclo[4.1.0]heptan-7-yl)methanamine]
< 0.5	< 1	Cc1nccc(-c2n[nH]c3nc(N4CC[C@@H]5[C@H](C4)[C@@]5(CN)c4ccccc4F)cnc23)c1F [Example 195, ((1S,6R,7R)-3-(3-(3-fluoro-2-methylpyridin-4-yl)-1H-pyrazolo[3,4-b]pyrazin-6-yl)-7-(2-fluorophenyl)-3-azabicyclo[4.1.0]heptan-7-yl)methanamine]
< 0.5	< 1	NC[C@]1(c2ccccc2F)[C@@H]2CCN(c3cnc4c(-c5cc(N)ncc5Cl)n[nH]c4n3)C[C@@H]21 [Example 196, 4-(6-((1S,6R,7R)-7-(aminomethyl)-7-(2-fluorophenyl)-3-azabicyclo[4.1.0]heptan-3-yl)-1H-pyrazolo[3,4-b]pyrazin-3-yl)-5-chloropyridin-2-amine]
< 0.5	< 1	NC[C@]1(c2ccccc2F)[C@@H]2CCN(c3cnc4c(-c5ccnc(NC6CC6)c5Cl)n[nH]c4n3)C[C@@H]21 [Example 197, 4-(6-((1S,6R,7R)-7-(aminomethyl)-7-(2-fluorophenyl)-3-azabicyclo[4.1.0]heptan-3-yl)-1H-pyrazolo[3,4-b]pyrazin-3-yl)-3-chloro-N-cyclopropylpyridin-2-amine]
< 0.5	< 1	Cn1c(-c2n[nH]c3nc(N4CC[C@@H]5[C@H](C4)[C@@]5(CN)c4ccccc4F)cnc23)cccc1=O [Example 198, 6-(6-((1S,6R,7R)-7-(aminomethyl)-7-(2-fluorophenyl)-3-azabicyclo[4.1.0]heptan-3-yl)-1H-pyrazolo[3,4-b]pyrazin-3-yl)-1-methylpyridin-2(1H)-one]
< 0.5	< 1	Cc1c(-c2n[nH]c3nc(N4CC[C@@H]5[C@H](C4)[C@@]5(CN)c4ccc(F)cc4F)cnc23)ccc2nn(C)cc12 [Example 199, ((1S,6R,7R)-7-(2,4-difluorophenyl)-3-(3-(2,4-dimethyl-2H-indazol-5-yl)-1H-pyrazolo[3,4-b]pyrazin-6-yl)-3-azabicyclo[4.1.0]heptan-7-yl)methanamine]
< 0.5	< 1	COc1ccc(-c2n[nH]c3nc(N4CC[C@@H]5[C@H](C4)[C@@]5(CN)c4ccc(F)cc4F)cnc23)c2cccnc12 [Example 200, ((1S,6R,7R)-7-(2,4-difluorophenyl)-3-(3-(8-methoxyquinolin-5-yl)-1H-pyrazolo[3,4-b]pyrazin-6-yl)-3-azabicyclo[4.1.0]heptan-7-yl)methanamine]
< 0.5	< 1	COc1ccc(-c2n[nH]c3nc(N4CC[C@@H]5[C@H](C4)[C@@]5(CN)c4ccccc4F)cnc23)c2ccc(C)nc12 [Example 201, ((1S,6R,7R)-7-(2-fluorophenyl)-3-(3-(8-methoxy-2-methylquinolin-5-yl)-1H-pyrazolo[3,4-b]pyrazin-6-yl)-3-azabicyclo[4.1.0]heptan-7-yl)methanamine]
< 0.5	< 1	Cn1cc2c(C(F)F)c(-c3n[nH]c4nc(N5CC[C@@H]6[C@H](C5)[C@@]6(CN)c5ccccc5F)cnc34)ccc2n1 [Example 202, ((1S,6R,7R)-3-(3-(4-(difluoromethyl)-2-methyl-2H-indazol-5-yl)-1H-pyrazolo[3,4-b]pyrazin-6-yl)-7-(2-fluorophenyl)-3-azabicyclo[4.1.0]heptan-7-yl)methanamine]
< 0.5	< 1	Cn1cc2c(Cl)c(-c3n[nH]c4nc(N5CC[C@@H]6[C@H](C5)[C@@]6(CN)c5ccccc5F)cnc34)ccc2n1 [Example 203, ((1S,6R,7R)-3-(3-(4-chloro-2-methyl-2H-indazol-5-yl)-1H-pyrazolo[3,4-b]pyrazin-6-yl)-7-(2-fluorophenyl)-3-azabicyclo[4.1.0]heptan-7-yl)methanamine]
< 0.5	< 1	Cc1c(-c2n[nH]c3nc(N4CC[C@@H]5[C@H](C4)[C@@]5(CN)c4ccccc4F)cnc23)ccc2c1nnn2C [Example 204, ((1S,6R,7R)-3-(3-(1,4-dimethyl-1H-benzo[d][1,2,3]triazol-5-yl)-1H-pyrazolo[3,4-b]pyrazin-6-yl)-7-(2-fluorophenyl)-3-azabicyclo[4.1.0]heptan-7-yl)methanamine]
< 0.5	< 1	Cc1c(-c2n[nH]c3nc(N4CC[C@@H]5[C@H](C4)[C@@]5(CN)c4ccccc4F)cnc23)ccc2nn(C)nc12 [Example 205, ((1S,6R,7R)-3-(3-(2,4-dimethyl-2H-benzo[d][1,2,3]triazol-5-yl)-1H-pyrazolo[3,4-b]pyrazin-6-yl)-7-(2-fluorophenyl)-3-azabicyclo[4.1.0]heptan-7-yl)methanamine]
< 0.5	< 1	CC1(C)C(=O)Nc2ccc(-c3n[nH]c4nc(N5CC[C@@H]6[C@H](C5)[C@@]6(CN)c5ccccc5F)cnc34)cc21 [Example 206, 5-(6-((1S,6R,7R)-7-(aminomethyl)-7-(2-fluorophenyl)-3-azabicyclo[4.1.0]heptan-3-yl)-1H-pyrazolo[3,4-b]pyrazin-3-yl)-3,3-dimethylindolin-2-one]
< 0.5	< 1	NC[C@]1(c2ccccc2F)[C@@H]2CCN(c3cnc4c(-c5ccc6c(c5Cl)NC(=O)CO6)n[nH]c4n3)C[C@@H]21 [Example 207, 6-(6-((1S,6R,7R)-7-(aminomethyl)-7-(2-fluorophenyl)-3-azabicyclo[4.1.0]heptan-3-yl)-1H-pyrazolo[3,4-b]pyrazin-3-yl)-5-chloro-2H-benzo[b][1,4]oxazin-3(4H)-one]
< 0.5	< 1	CCn1cc2c(Cl)c(-c3n[nH]c4nc(N5CC[C@@H]6[C@H](C5)[C@@]6(CN)c5ccccc5F)cnc34)ccc2n1 [Example 208, ((1S,6R,7R)-3-(3-(4-chloro-2-ethyl-2H-indazol-5-yl)-1H-pyrazolo[3,4-b]pyrazin-6-yl)-7-(2-fluorophenyl)-3-azabicyclo[4.1.0]heptan-7-yl)methanamine]
